These results are taken from ChEMBL document CHEMBL2331209, “Mechanistic studies of the inactivation of tyrosinase by resorcinol” (Bioorg Med Chem, 2013).

In assay [1] the target is T1, Tyrosinase (Homo sapiens) (UniProt P14679).
T1 sequence (whole entry): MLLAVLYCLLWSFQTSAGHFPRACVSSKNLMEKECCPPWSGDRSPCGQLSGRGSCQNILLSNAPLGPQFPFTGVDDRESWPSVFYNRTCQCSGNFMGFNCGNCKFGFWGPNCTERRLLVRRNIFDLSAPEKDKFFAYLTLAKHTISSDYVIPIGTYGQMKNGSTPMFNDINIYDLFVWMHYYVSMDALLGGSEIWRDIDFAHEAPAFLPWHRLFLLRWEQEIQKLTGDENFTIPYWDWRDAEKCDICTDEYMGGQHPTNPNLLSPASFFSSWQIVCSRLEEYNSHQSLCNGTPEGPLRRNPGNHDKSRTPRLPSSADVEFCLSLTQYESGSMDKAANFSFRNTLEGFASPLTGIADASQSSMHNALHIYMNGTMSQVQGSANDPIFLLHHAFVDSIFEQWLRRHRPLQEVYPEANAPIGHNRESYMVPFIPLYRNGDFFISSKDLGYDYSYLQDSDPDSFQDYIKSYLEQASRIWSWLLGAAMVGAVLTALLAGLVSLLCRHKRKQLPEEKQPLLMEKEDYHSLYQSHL
Briefly: Inactivation of tyrosinase (unknown origin) assessed as decay half-life using 4-methylcatechol substrate at 850 uM equimolar concentrations resorcinol by spectrophotometry.

Assay [2] addresses T1, Tyrosinase (Homo sapiens). Description: Inactivation of tyrosinase (unknown origin) assessed as total oxygen uptake using 4-methylcatechol substrate at 850 uM equimolar concentrations resorcinol by spectrophotometry.
The target of assay [3] is T1, Tyrosinase (Homo sapiens). Briefly: Inactivation of tyrosinase (unknown origin) assessed as initial rate of oxygen utilization at absorbance 400 nm using 4-methylcatechol substrate at 850 uM equimolar concentrations resorcinol by spectrophotometry.
Assay [4] concerns the target T1, Tyrosinase (Homo sapiens). Briefly: Inactivation of tyrosinase (unknown origin) assessed as initial rate of oxygen utilization using 4-methylcatechol substrate at 850 uM equimolar concentrations resorcinol by spectrophotometry.
Assay [5] concerns the target T1, Tyrosinase (Homo sapiens). Briefly: Inactivation of tyrosinase (unknown origin) assessed as decay half-life using 4-methylcatechol substrate at 850 uM by spectrophotometry.
In assay [6] the target is T1, Tyrosinase (Homo sapiens). Description: Inactivation of tyrosinase (unknown origin) assessed as total oxygen uptake using 4-methylcatechol substrate at 850 uM by spectrophotometry.
Assay [7] addresses T1, Tyrosinase (Homo sapiens). Description: Inactivation of tyrosinase (unknown origin) assessed as initial rate of oxygen utilization at absorbance 400 nm using 4-methylcatechol substrate at 850 uM by spectrophotometry.
The target of assay [8] is T1, Tyrosinase (Homo sapiens). Description: Inactivation of tyrosinase (unknown origin) assessed as initial rate of oxygen utilization using 4-methylcatechol substrate at 850 uM by spectrophotometry.

Turning to `Cc1c(O)cccc1O`, the Decay half-life in assay [1] came out at 82%. Moreover, the results for the Activity in assay [2], in assay [3] and in assay [4] were 90%, 103% and 105%, respectively.
For `Oc1cc(O)cc(F)c1` the same measures were 122%, 52%, 46% and 67%.
For `Oc1cc(O)cc(O)c1` the same measures were 81%, 75%, 133% and 95%.
With `Cc1cc(O)cc(O)c1`, the Decay half-life in assay [1] amounted to 31%. Also, the Activity is 28% in assay [2], 46% in assay [3] and 63% in assay [4].
On to `Oc1cccc(O)c1`, for which the Activity in assay [5] was 75%; in assay [6], 37%; in assay [7] it was 26%; in assay [8] it was 32%.
As for `Oc1c(Cl)cc(Cl)c(O)c1Cl`, the Decay half-life in assay [1] came to 73%. The Activity in assay [2] came out at 86%; in assay [3], 105%; in assay [4], 110%.
For `Cc1cc(C)c(O)cc1O`, the Decay half-life in assay [1] was 193%. Moreover, the Activity in assay [2] was 69%; in assay [3], 57%; in assay [4], 46%.
For `Oc1cccc(O)c1Cl` the same measures were 72%, 69%, 79% and 60%.
`Oc1c(F)c(O)c(F)c(F)c1F`: the Decay half-life in assay [1] is 97%. Moreover, the Activity came out at 75% in assay [2], 86% in assay [3] and 91% in assay [4].
For `COc1cc(O)cc(O)c1` the same measures were 22%, 26%, 62% and 64%.
For `Oc1ccc(F)c(O)c1F` the same measures were 48%, 30%, 28% and 18%.
In the same order, the values of `Cc1cc(O)c(C)c(O)c1` are 82%, 117%, 103% and 97%.
As for `Oc1ccc(F)c(O)c1`, the Activity came out at 0% in assay [2], 10% in assay [3] and 6% in assay [4].
As to `Oc1cc(O)c(Cl)cc1Cl`, the Decay half-life in assay [1] worked out at 160%. The figures for the Activity in assay [2], in assay [3] and in assay [4] were 33%, 22% and 29%, respectively.
Turning to `Oc1cc(O)c(F)cc1F`, in assay [1], the Decay half-life was 83%. The Activity is 29% in assay [2], 30% in assay [3] and 30% in assay [4].
Consider `Oc1cccc(O)c1F`, for which the Decay half-life in assay [1] turned out to be 68%. The Activity in assay [2] is 35%; in assay [3] it was 40%; in assay [4], 33%.
In the same order, the values of `Oc1cc(F)cc(O)c1F` are 74%, 31%, 51% and 41%.
Regarding `CCc1ccc(O)cc1O`, the Activity in assay [2] is 0%; in assay [3], < 1%; in assay [4], 1%.
In the same order, the values of `Oc1cccc(O)c1O` are 100%, 100% and 100%.
